System: CN0375-F725-PDC KRAS spheroid viability
Assay: Anticancer human tumor CN0375-F725-PDC patient-derived colon carcinoma cell line growth inhibition [KRAS2]
Conditions: spheroids with HUVEC and MSC; for IC50: curve of first compound; for viability, T/C: stronger effect = lower value
Procedure, shortened: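 Combination screen of spheroid viability in tumor-cell co-cultures with endothelial (HUVEC) and mesenchymal stem cell stroma. Each agent was tested in half-log dilutions, topping at clinical Cmax or at 10 microM without a known Cmax.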

[1] = second compound 0.1 µM, first compound 0.01 µM
[2] = second compound 0.1 µM, first compound 0.0316 µM
[3] = second compound 0.1 µM, first compound 0.1 µM
[4] = second compound 0.1 µM, first compound 0.316 µM
[5] = second compound 0.1 µM, first compound 1 µM
[6] = second compound 0.1 µM, first compound 3.16 µM
[7] = second compound 0.316 µM, first compound 0.01 µM
[8] = second compound 0.316 µM, first compound 0.0316 µM
[9] = second compound 0.316 µM, first compound 0.1 µM
[10] = second compound 0.316 µM, first compound 0.316 µM
[11] = second compound 0.316 µM, first compound 1 µM
[12] = second compound 0.316 µM, first compound 3.16 µM
[13] = second compound 1 µM, first compound 0.01 µM
[14] = second compound 1 µM, first compound 0.0316 µM
[15] = second compound 1 µM, first compound 0.1 µM
[16] = second compound 1 µM, first compound 0.316 µM
[17] = second compound 1 µM, first compound 1 µM
[18] = second compound 1 µM, first compound 3.16 µM
[19] = second compound 3.16 µM, first compound 0.01 µM
[20] = second compound 3.16 µM, first compound 0.0316 µM
[21] = second compound 3.16 µM, first compound 0.1 µM
[22] = second compound 3.16 µM, first compound 0.316 µM
[23] = second compound 3.16 µM, first compound 1 µM
[24] = second compound 3.16 µM, first compound 3.16 µM
[25] = second compound 10 µM, first compound 0.01 µM
[26] = second compound 10 µM, first compound 0.0316 µM
[27] = second compound 10 µM, first compound 0.1 µM
[28] = second compound 10 µM, first compound 0.316 µM
[29] = second compound 10 µM, first compound 1 µM
[30] = second compound 10 µM, first compound 3.16 µM
[31] = second compound 0.1 µM, first compound 10 µM
[32] = second compound 0.316 µM, first compound 10 µM
[33] = second compound 1 µM, first compound 10 µM
[34] = second compound 3.16 µM, first compound 10 µM
[35] = second compound 10 µM, first compound 10 µM
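Further: spheroids exposed to agents for 7 days.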

| Structure (SMILES) | IC50 (second compound 0.1 µM) [nM] | IC50 (second compound 0.316 µM) [nM] | IC50 (second compound 1 µM) [nM] | IC50 (second compound 3.16 µM) [nM] | IC50 (second compound 10 µM) [nM] | viability, T/C [2] [%] | viability, T/C [3] [%] | viability, T/C [4] [%] | viability, T/C [5] [%] | viability, T/C [8] [%] | viability, T/C [9] [%] | viability, T/C [10] [%] | viability, T/C [11] [%] | viability, T/C [14] [%] | viability, T/C [15] [%] | viability, T/C [16] [%] | viability, T/C [17] [%] | viability, T/C [20] [%] | viability, T/C [21] [%] | viability, T/C [22] [%] | other results |
| --- | --- | --- | --- | --- | --- | --- | --- | --- | --- | --- | --- | --- | --- | --- | --- | --- | --- | --- | --- | --- | --- |
| CC1COCCN1c1cc(-c2ccnn2C)c2ccnc(-c3ccn[nH]3)c2n1 (stereo not given) + COc1cc2nc(C)nc(NC(C)c3cc(N)cc(C(F)(F)F)c3)c2cc1OC1CCOC1 | > 3160 | > 3160 | > 3160 | 2720 | < 10 | 95 | 86.5 | 78.3 | 71.1 | 91.4 | 76 | 74.8 | 67.9 | 96.1 | 78 | 71.8 | 65.6 | 88.2 | 71.7 | 65.3 | viability, T/C [1]: 101%; viability, T/C [6]: 54.1%; viability, T/C [7]: 98.7%; viability, T/C [12]: 50.8%; viability, T/C [13]: 101%; viability, T/C [18]: 49.5%; viability, T/C [19]: 87.5%; viability, T/C [23]: 58.1%; viability, T/C [24]: 48.1%; viability, T/C [25]: 15%; viability, T/C [26]: 19.3%; viability, T/C [27]: 17.1%; viability, T/C [28]: 13.9%; viability, T/C [29]: 18.1%; viability, T/C [30]: 9.84% |
| CC1OCC2(CCN(c3cnc(Sc4ccnc(N)c4Cl)c(N)n3)CC2)C1N (stereo not given) + COc1cc2nc(C)nc(NC(C)c3cc(N)cc(C(F)(F)F)c3)c2cc1OC1CCOC1 | > 10000 | > 10000 | > 10000 | 4640 | < 31.6 | 95.5 | 83.2 | 80.6 | 81.2 | 90.5 | 91.7 | 73.3 | 77.8 | 91.3 | 87.2 | 81.3 | 73.9 | 80.9 | 73.8 | 69 | viability, T/C [6]: 76%; viability, T/C [31]: 70.7%; viability, T/C [12]: 71%; viability, T/C [32]: 60.6%; viability, T/C [18]: 68.7%; viability, T/C [33]: 60.4%; viability, T/C [23]: 57.2%; viability, T/C [24]: 61.3%; viability, T/C [34]: 40.1%; viability, T/C [26]: 13.6%; viability, T/C [27]: 12.1%; viability, T/C [28]: 12.8%; viability, T/C [29]: 8.09%; viability, T/C [30]: 8.5%; viability, T/C [35]: 5.15% |
| CCN1CCN(Cc2ccc(Nc3ncc(F)c(-c4cc(F)c5nc(C)n(C(C)C)c5c4)n3)nc2)CC1 + COc1cc2nc(C)nc(NC(C)c3cc(N)cc(C(F)(F)F)c3)c2cc1OC1CCOC1 | > 1000 | > 1000 | > 1000 | > 1000 | < 3.16 | 81.9 | 88.1 | 90.7 | 94.7 | 79.2 | 82 | 92.8 | 78 | 79.3 | 81.6 | 86.5 | 83 | 71.3 | 70.7 | 71.7 | viability, T/C (second compound 0.1 µM, first compound 0.00316 µM): 96.4%; viability, T/C [1]: 89.7%; viability, T/C (second compound 0.316 µM, first compound 0.00316 µM): 93%; viability, T/C [7]: 91.2%; viability, T/C (second compound 1 µM, first compound 0.00316 µM): 91.1%; viability, T/C [13]: 85.3%; viability, T/C (second compound 3.16 µM, first compound 0.00316 µM): 84.3%; viability, T/C [19]: 79.9%; viability, T/C [23]: 49.5%; viability, T/C (second compound 10 µM, first compound 0.00316 µM): 14.6%; viability, T/C [25]: 14.5%; viability, T/C [26]: 13.4%; viability, T/C [27]: 15.4%; viability, T/C [28]: 6.49%; viability, T/C [29]: 0.9% |
| CCNC(=O)CC1N=C(c2ccc(Cl)cc2)c2cc(OC)ccc2-n2c(C)nnc21 (stereo not given) + COc1cc2nc(C)nc(NC(C)c3cc(N)cc(C(F)(F)F)c3)c2cc1OC1CCOC1 | 8600 | 6560 | 7200 | 1960 | < 31.6 | 97.9 | 88.2 | 77.7 | 78.2 | 94.2 | 87.6 | 78.1 | 71.7 | 87.4 | 84.5 | 71.2 | 69.7 | 79.1 | 79.4 | 64.9 | viability, T/C [6]: 63.7%; viability, T/C [31]: 45.8%; viability, T/C [12]: 63.4%; viability, T/C [32]: 42.5%; viability, T/C [18]: 60.6%; viability, T/C [33]: 45.4%; viability, T/C [23]: 58.6%; viability, T/C [24]: 44.8%; viability, T/C [34]: 32.5%; viability, T/C [26]: 12.7%; viability, T/C [27]: 8.68%; viability, T/C [28]: 5%; viability, T/C [29]: 3.29%; viability, T/C [30]: 2.26%; viability, T/C [35]: 1.29% |
| Cn1nccc1Nc1nccc(-c2cc3c(s2)C(C)(C)N(CCN2CCOCC2)C3=O)n1 + COc1cc2nc(C)nc(NC(C)c3cc(N)cc(C(F)(F)F)c3)c2cc1OC1CCOC1 | 2530 | 2200 | 1570 | 487 | < 31.6 | 96.5 | 85.8 | 68.7 | 59.9 | 88.8 | 83.2 | 67.2 | 59.9 | 92.9 | 80.5 | 63.8 | 53.2 | 75.6 | 68.8 | 53.8 | viability, T/C [6]: 47.2%; viability, T/C [31]: 41.6%; viability, T/C [12]: 45.2%; viability, T/C [32]: 39.6%; viability, T/C [18]: 46.1%; viability, T/C [33]: 37.6%; viability, T/C [23]: 41.6%; viability, T/C [24]: 35.1%; viability, T/C [34]: 28.2%; viability, T/C [26]: 11.9%; viability, T/C [27]: 13.1%; viability, T/C [28]: 10.9%; viability, T/C [29]: 8.43%; viability, T/C [30]: 4.35%; viability, T/C [35]: 1.87% |

— PubChem BioAssay AID1963860 (Molecular Pharmacology Branch, DTP, NCI, 2024)
